# Measured values published in patent US20090298843A1, “TREATMENT OF HEMATOLOGICAL MALIGNANCIES WITH FTS AND A BCR-ABL TYROSINE KINASE INHIBITOR” (RAMOT AT TEL AVIV UNIVERSITY LTD., priority 2006, published 2009).
# What was measured:
# [1] = test system: 697 cells (Human T-cell leukemia, ALL); assay: Cell growth inhibition assay, FTS alone (direct cell count); assay type: cell-based; settings: for cell number in FTS-treated cells as a percentage of controls (avg): counted 48 h after addition
# From the text: (§1) The following cell lines were examined, representing Acute Myeloid Leukemia (AML), Acute Lymphoblastic Leukemia (ALL), and Chronic Myeloid Leukemia (CML): 1. CEM (Human T-cell leukemia, ALL) 2. HSB-2 (Human T-cell leukemia, ALL) carrying the t(1; 7) (p34; q34) involving the lck and tcrb genes and a submicroscopic del(1)(p32) leading to the Sil-Scl fusion gene 3. 697 (Human T-cell leukemia, ALL) 4. Raji (Human Burkitt's lymphoma) with overexpression and mutation in the c-Myc gene 5. U-937 (Human histiocytic lymphoma, AML) 6. HL-60 (AML) 7. K562 (Himan, CML) with a b3-a2 fusion gene to create the Bcr-Abl chimeric oncoprotein.
# (§2) Cells were grown at 37° C. in RPMI containing 5% FCS, 100 μg/mL streptomycin, and 100 units/mL penicillin and maintained in a humidified atmosphere of 95% air/5% CO2. […] Each experiment tin quadruplicate) was performed at least two times.
# [2] = test system: CEM cells (Human T-cell leukemia, ALL); assay: as above; assay type: cell-based; settings: for cell number in FTS-treated cells as a percentage of controls (avg): CEM, counted 48 h after addition
# From the text: as §1, §2
# [3] = test system: HSB-2 cells (Human T-cell leukemia, ALL); assay: as above; assay type: cell-based; settings: for cell number in FTS-treated cells as a percentage of controls (avg): HSB, counted 48 h after addition
# From the text: as §1, §2
# [4] = test system: K562 cells (Human, CML); assay: as above; assay type: cell-based; settings: for cell number in FTS-treated cells as a percentage of controls (avg): counted 48 h after addition
# From the text: as §1, §2
# [5] = test system: Raji cells (Human Burkitt's lymphoma); assay: as above; assay type: cell-based; settings: for cell number in FTS-treated cells as a percentage of controls (avg): counted 48 h after addition
# From the text: as §1, §2
# [6] = test system: U-937 cells (Human histiocytic lymphoma, AML); assay: as above; assay type: cell-based; settings: U937; for cell number in FTS-treated cells as a percentage of controls (avg): counted 48 h after addition
# From the text: as §1, §2
# [7] = test system: HL-60 cells (AML); assay: as above; assay type: cell-based, Human; settings: for cell number in FTS-treated cells as a percentage of controls (avg): counted 48 h after addition
# From the text: as §1, §2
# [8] = test system: K562 cells (Human, CML); assay: FACS analysis of propidium iodide stained cells (cell cycle distribution, sub-G1); assay type: cell-based; settings: for cells in sub-G1: 48 h
# Method: Third, a FACS analysis was performed. Cells were plated at a density of 50,000 cells per ml in 10 cm plates for fluorescence-activated cell-sorting (FACS) analysis of propidium iodide stained cells. […] Forty-eight hours (48 h) later, propidium iodide mixed with 1% Triton X-100 was added to the cells, and the cell cycle distribution of the cells was assessed using a FACS machine.
# [Gambacorti-Passerini, C., le Coutre, P., Mologni, L., Fanelli, M., Bertazzoli, C., Marchesi, E., Di Nicola, M., Biondi, A., Corneo, G. M., Belotti, D., Pogliani, E., Lydon, N. B., Blood Cells Mol Dis. 23(3):380-94 (1997)].
# [9] = Phase-I open-label study of FTS in human patients with advanced hematologic malignancies; assay type: in vivo; settings: for ANC, baseline level / HGB, baseline level / PLT, baseline level: before treatment
# Method: One human patient with advanced myelodysplastic syndrome (MDS) refractory to chemotherapy was treated with FTS, at a dose of 200 b.i.d. (400 mg daily), administered on days 1 to 21 of a 28 day cycle. […] The results are graphically depicted in FIG. 7 and in Table 3 (below). Five human patients with advanced myelodysplastic syndrome (MDS), acute myelogenous leukemia (AML), or chronic myelogenous leukemia (CML) refractory to chemotherapy were treated with FTS at doses of 200 to 600 mg b.i.d. (400 to 1200 mg daily) administered on days 1 to 21 of a 28 day cycle. […]
# [10] = test system: seven leukemia cell lines (CEM, HSB-2, 697, Raji, U-937, HL-60, K562); assay: Cell growth inhibition assay, FTS alone, summary over the seven cell lines; assay type: cell-based, Human
# From the text: as §1, §2
# [11] = Homo sapiens, read-out: IC50 for FTS inhibition of leukemia cell growth
# [12] = person one, AML, FTS 400 mg b.i.d.
# [13] = person two, AML, FTS 400 mg b.i.d.
# [14] = person, MDS, FTS 200 b.i.d., days 1 to 21 of a 28 day cycle
compound,measurement,setting,value
"CC(C)=CCC/C(C)=C/CC/C(C)=C/CSc1ccccc1C(=O)O [FTS, farnesylthiosalicylic acid]",cell number in FTS-treated cells as a percentage of controls (avg),[1]; FTS 12.5 uM,27%
same,cell number in FTS-treated cells as a percentage of controls (avg),[1]; FTS 25 uM,44%
same,cell number in FTS-treated cells as a percentage of controls (avg),[1]; FTS 50 uM,34%
same,cell number in FTS-treated cells as a percentage of controls (avg),[1]; FTS 75 uM,4%
same,cell number in FTS-treated cells as a percentage of controls (avg),[1]; FTS 100 uM,2%
same,IC50,"[1]; Homo sapiens, T-cell",25 µM
same,cell number in FTS-treated cells as a percentage of controls (avg),[2]; FTS 12.5 uM,89%
same,cell number in FTS-treated cells as a percentage of controls (avg),[2]; FTS 25 uM,78%
same,cell number in FTS-treated cells as a percentage of controls (avg),[2]; FTS 50 uM,71%
same,cell number in FTS-treated cells as a percentage of controls (avg),[2]; FTS 75 uM,32%
same,cell number in FTS-treated cells as a percentage of controls (avg),[2]; FTS 100 uM,12%
same,IC50,"[2]; Homo sapiens, CCRF-CEM",50 µM
same,cell number in FTS-treated cells as a percentage of controls (avg),[3]; FTS 12.5 uM,88%
same,cell number in FTS-treated cells as a percentage of controls (avg),[3]; FTS 25 uM,53%
same,cell number in FTS-treated cells as a percentage of controls (avg),[3]; FTS 50 uM,38%
same,cell number in FTS-treated cells as a percentage of controls (avg),[3]; FTS 75 uM,22%
same,cell number in FTS-treated cells as a percentage of controls (avg),[3]; FTS 100 uM,4%
same,IC50,"[3]; Homo sapiens, HSB2",25 µM
same,cell number in FTS-treated cells as a percentage of controls (avg),[4]; FTS 6.25 uM,100%
same,cell number in FTS-treated cells as a percentage of controls (avg),[4]; FTS 12.5 uM,115%
same,cell number in FTS-treated cells as a percentage of controls (avg),[4]; FTS 25 uM,107%
same,cell number in FTS-treated cells as a percentage of controls (avg),[4]; FTS 50 uM,37%
same,cell number in FTS-treated cells as a percentage of controls (avg),[4]; FTS 75 uM,14%
same,cell number in FTS-treated cells as a percentage of controls (avg),[4]; FTS 100 uM,1%
same,IC50,[4]; [11],50 µM
same,cell number in FTS-treated cells as a percentage of controls (avg),[5]; FTS 6.25 uM,63%
same,cell number in FTS-treated cells as a percentage of controls (avg),[5]; FTS 12.5 uM,61%
same,cell number in FTS-treated cells as a percentage of controls (avg),[5]; FTS 25 uM,33%
same,cell number in FTS-treated cells as a percentage of controls (avg),[5]; FTS 50 uM,24%
same,cell number in FTS-treated cells as a percentage of controls (avg),[5]; FTS 75 uM,11%
same,cell number in FTS-treated cells as a percentage of controls (avg),[5]; FTS 100 uM,5%
same,IC50,[5]; [11],20 µM
same,IC50,"[6]; Homo sapiens, U-937, read-out: IC50 for FTS inhibition of leukemia cell growth",70 µM
same,cell number in FTS-treated cells as a percentage of controls (avg),[6]; FTS 12.5 uM,104%
same,cell number in FTS-treated cells as a percentage of controls (avg),[6]; FTS 25 uM,82%
same,cell number in FTS-treated cells as a percentage of controls (avg),[6]; FTS 50 uM,82%
same,cell number in FTS-treated cells as a percentage of controls (avg),[6]; FTS 75 uM,32%
same,cell number in FTS-treated cells as a percentage of controls (avg),[6]; FTS 100 uM,9%
same,cell number in FTS-treated cells as a percentage of controls (avg),[7]; FTS 6.25 uM,76%
same,cell number in FTS-treated cells as a percentage of controls (avg),[7]; FTS 12.5 uM,69%
same,cell number in FTS-treated cells as a percentage of controls (avg),[7]; FTS 25 uM,82%
same,cell number in FTS-treated cells as a percentage of controls (avg),[7]; FTS 50 uM,67%
same,cell number in FTS-treated cells as a percentage of controls (avg),[7]; FTS 75 uM,31%
same,IC50,[7]; [11],60 µM
same,sensitization of K562 cells to GLEEVEC,[8]; FTS 70 μM with GLEEVEC 200 nM,chemosensitized the K562 cells to GLEEVEC
same,cells in sub-G1,"[8]; FTS only, 70 μM",8%
same,"lineage response (PLT, HGB or ANC) over the course of treatment","[9]; five patients, advanced MDS, AML or CML refractory to chemotherapy, 200 to 600 mg b.i.d., days 1 to 21 of a 28 day cycle",improvement in one lineage
same,"lineage response (PLT, HGB, ANC) over the course of treatment","[9]; one patient, advanced MDS refractory to chemotherapy, 200 b.i.d. (400 mg daily), days 1 to 21 of a 28 day cycle",improvement in three lineages
same,"ANC, best level observed",[9]; [12],4.503e+09 L⁻¹
same,"ANC, baseline level",[9]; [12],0.285 to × 10^9/L
same,"ANC, best level observed",[9]; [13],9.54e+08 L⁻¹
same,"ANC, baseline level",[9]; [13],0.144 to × 10^9/L
same,"HGB, best level observed","[9]; person, CML, FTS 600 mg b.i.d.",11.4 g/dL
same,"HGB, baseline level","[9]; person, CML, FTS 600 mg b.i.d.",9.3 to g/dL
same,"PLT, best level observed","[9]; person, MDS, FTS 200 mg b.i.d.",5.4e+10 L⁻¹
same,"PLT, baseline level","[9]; person, MDS, FTS 200 mg b.i.d.",21 to × 10^9/L
same,"HGB, best level observed","[9]; person, MDS, FTS 400 mg b.i.d.",10.4 g/dL
same,"HGB, baseline level","[9]; person, MDS, FTS 400 mg b.i.d.",9.7 to g/dL
same,"ANC, best level observed",[9]; [14],9.7e+08 L⁻¹
same,"HGB, best level observed",[9]; [14],12.7 g/dL
same,"PLT, best level observed",[9]; [14],1.05e+11 L⁻¹
same,"ANC, baseline level",[9]; [14],0.40 to × 10^9/L
same,"HGB, baseline level",[9]; [14],10.4 to g/dL
same,"PLT, baseline level",[9]; [14],53 to × 10^9/L
same,IC50,"[10]; Homo sapiens, seven leukemia cell lines, read-out: half maximal inhibitory concentration (IC50) values, range over the cell lines",20 to 70 µM
same,"growth inhibition, result in words",[10]; seven cell lines,inhibited growth of each of seven cell lines
"Cc1ccc(NC(=O)c2ccc(CN3CCN(C)CC3)cc2)cc1Nc1nccc(-c2cccnc2)n1 [GLEEVEC, reference compound]",cells in sub-G1,"[8]; GLEEVEC only, 200 nM",13%
